Values quoted from earlier work as cited in US20230110028A1, “OXYBATE POLYETHYLENE GLYCOL PRODRUGS” (Tris Pharma, Inc., priority 2021, published 2023).

Key:
[1] = forms gamma-butyrolactone (GBL) at pH below 7
[2] = in vivo
[3] = not given; remark: listed apart in the source

Molecule | Solubility [3] [mg/mL] | other results
O=C(O)CCCO [Sodium oxybate] | – | stability in acidic medium [1]: unstable; solubility in aqueous solutions: very soluble
O=C(O)CCCO [oxybate, gamma hydroxybutyrate] | – | elimination half-life [2]: 30 to 40 min
Hydroxypropyl-β-cyclodextrin | ≥600 | –
Randomly methylated-β-cyclodextrin | ≥500 | –
Sulfobutyl ether-β-cyclodextrin | ≥500 | –
